Marks after values point to notes of the source that are not given here.
Assays:
[1] = Plasma peptide levels (EIA) during dose-escalating continuous intravenous infusion in conscious rabbits; format: in vivo; conditions: rabbit; for Plasma steady state concentration: n = 6
Excerpt: (§1) New Zealand White male rabbits (R & R Rabbitry, WA) weighing 2.5 to 3.0 kg, were used in the study. Upon receipt, the animals were allowed a 1-week acclimation period at the animal facility to ensure proper health status prior to the study. On the day of the study, the rabbits were weighed and placed in an open top plexiglass restrainers with adjustable plexiglass and nylon covers. The ears were shaved, 2% Lidocaine HCl (Xylocalne jelly, Astra, Westborough, Mass.) was applied topically on the surface of the ears, and IV catheters (Angiocath, Becton Dickinson, Utah) fitted with heparin locks were inserted into the intermedial branch of the peripheral ear vein for drug administration and into the central ear artery for repeated blood sampling.
(§2) Blood samples were drawn 20 minutes prior to and 0, 50, 55, 60, 110, 115, 120, 170, 175, and 180 minutes following initiation of the infusion. […] Blood samples were taken at 20 minutes prior to dosing, immediately prior to dosing and 5, 10, 15, 30, 60, and 90 minutes after dosing. Blood samples (3 mL) was drawn at each time point and the volume replaced with an equal volume of 0.9% NaCl. Blood was collected into EDTA coated tubes containing aprotinin (150 kallikrein inhibitory units/tube) and centrifuged immediately.
(§3) The plasma samples were diluted appropriately with pooled normal rabbit plasma prior to assay. […] Levels of the biotinylated probe were measured by using a sensitive enzyme based detection system, avidin-HRP, and a […] that provided a colorimetric endpoint.

[2] = Plasma peptide levels (EIA) after a single intravenous bolus in conscious rabbits; conditions: male, New Zealand White, in vivo, 30 ug/kg, rabbit, single iv bolus 30 μg/kg, n = 4
Excerpt: as §1, §2, §3

plasma cyclic GMP [3] = test: Plasma cyclic GMP during dose-escalating continuous intravenous infusion in conscious rabbits; format: in vivo; conditions: rabbit; for Mean Plasma Cyclic GMP ± SD: n = 6
Excerpt: as §1, §2
(§4) Plasma cyclic GMP levels were determined by radioimmunoassay (DuPont, Boston, Mass.). […] Separation of the bound from free antigen was performed using a pre-reacted primary and secondary antibody complex. Prior to the assay, the plasma samples were extracted with ethanol and the supernate evaporated to dryness in a speed vac concentrator (Savant Instruments, Holbrook, N.Y.). The dried samples were reconstituted with sodium acetate buffer. Plasma cyclic GMP levels were determined by interpolation from the standard curve (0.01 to 10 pmol/mL).

plasma cyclic GMP [4] = test: Plasma cyclic GMP after a single intravenous bolus in conscious rabbits; format: in vivo; conditions: rabbit, single iv bolus 30 μg/kg, n = 4
Excerpt: as §1, §2, §4

Compound `CC[C@H](C)[C@@H]1NC(=O)[C@H](CCCNC(=N)N)NC(=O)[C@H](CC(=O)O)NC(=O)[C@H](CCSC)NC(=O)[C@H](CCCCN)NC(=O)[C@H](CCCNC(=N)N)NC(=O)CNC(=O)[C@H](Cc2ccccc2)NC(=O)[C@@H](NC(=O)CNC(=O)[C@H](CO)NC(=O)CNC(=O)[C@H](CCC(N)=O)NC(=O)[C@@H](NC(=O)[C@H](CCSC)NC(=O)[C@H](CCCCN)NC(=O)[C@@H]2CCCN2C(=O)[C@@H](N)CO)C(C)C)CSSC[C@@H](C(=O)N[C@@H](CCCCN)C(=O)N[C@H](C(=O)N[C@@H](CC(C)C)C(=O)N[C@@H](CCCNC(=N)N)C(=O)N[C@@H](CCCNC(=N)N)C(=O)N[C@@H](Cc2c[nH]cn2)C(=O)O)C(C)C)NC(=O)CNC(=O)[C@H](CC(C)C)NC(=O)CNC(=O)[C@H](CO)NC(=O)[C@H](CO)NC(=O)[C@H](CO)NC(=O)[C@H](CO)NC1=O` [hBNP, Ser^1-Pro^2-Lys^3-Met^4-Val^5-Gln^6-Gly^7-Ser^8-Gly^9-Cys^10-Phe^11-Gly^12-Arg^13-Lys^14-Met^15-Asp^16-Arg^17-Ile^18-Ser^19-Ser^20-Ser^21-Ser^22-Gly^23-Leu^24-Gly^25-Cys^26-Lys^27-Val^28-Leu^29-Arg^30-Lys^31-His^32] has a level at 50 min ([1]; male, New Zealand White, plasma, 0.05 ug/kg/min, iv infusion 0.05 μg/kg/min, 50 min, N = 6) of 1.39 ng/mL, a level at 55 min ([1]; male, New Zealand White, plasma, 0.05 ug/kg/min, iv infusion 0.05 μg/kg/min, 55 min, N = 6) of 1.28 ng/mL and a level at 1 h ([1]; male, New Zealand White, plasma, 0.05 ug/kg/min, iv infusion 0.05 μg/kg/min, 60 min, N = 6) of 1.29 ng/mL. The level at 110 min ([1]; male, New Zealand White, plasma, 0.1 ug/kg/min, iv infusion 0.1 μg/kg/min, 110 min, N = 6) was 3.85 ng/mL, the level at 115 min ([1]; male, New Zealand White, plasma, 0.1 ug/kg/min, iv infusion 0.1 μg/kg/min, 115 min, N = 6) was 3.7 ng/mL and the level at 2 h ([1]; male, New Zealand White, plasma, 0.1 ug/kg/min, iv infusion 0.1 μg/kg/min, 120 min, N = 6) was 2.75 ng/mL. It also gave a level at 170 min ([1]; male, New Zealand White, plasma, 0.2 ug/kg/min, iv infusion 0.2 μg/kg/min, 170 min, N = 6) of 7.4 ng/mL, a level at 175 min ([1]; male, New Zealand White, plasma, 0.2 ug/kg/min, iv infusion 0.2 μg/kg/min, 175 min, N = 6) of 8.07 ng/mL and a level at 3 h ([1]; male, New Zealand White, plasma, 0.2 ug/kg/min, iv infusion 0.2 μg/kg/min, 180 min, N = 6) of 6.59 ng/mL. For the same compound, the level at 0 h ([1]; male, New Zealand White, plasma, iv, 0 ug/kg/min, 0 μg/kg/min (before infusion), 0 min, N = 6) was 0.146 ng/mL, the level at -20 min ([1]; male, New Zealand White, plasma, iv, 0 ug/kg/min, 0 μg/kg/min (before infusion), −20 min, N = 6) was 0.166 ng/mL and the “Plasma steady state concentration” value ([1]; infusion rate 0.05 μg/kg/min) was 1319 ± 615 pg/mL. For the same compound, the “Plasma steady state concentration” value ([1]; infusion rate 0.1 μg/kg/min) was 3434 ± 952 pg/mL, the “Plasma steady state concentration” value ([1]; infusion rate 0.2 μg/kg/min) was 7357 ± 1569 pg/mL and the level at 5 min ([2]; 5 min) was 50.1 ng/mL. It also gave a level at 10 min ([2]; 10 min) of 12 ng/mL, a level at […] ([2]; 15 min) of 4.67 ng/mL and a level at 0.5 h ([2]; 30 min) of 1.21 ng/mL. For the same compound, the level at 1 h ([2]; 60 min) was 0.122 ng/mL, the level at […] ([2]; 90 min) was 0.051 ng/mL and the “Mean Plasma Cyclic GMP ± SD” value (plasma cyclic GMP [3]; 0 μg/kg/min (saline), 0 min) was 30 ± 16 pmol/mL. For the same compound, the “Mean Plasma Cyclic GMP ± SD” value (plasma cyclic GMP [3]; 0 μg/kg/min (saline), −20 min) was 34 ± 15 pmol/mL, the “Change of plasma cyclic GMP during continuous infusion” value (plasma cyclic GMP [3]; 0.05, 0.1, 0.2 μg/kg/min, in words) was “dose-related increase in plasma cyclic GMP” and the “Mean Plasma Cyclic GMP ± SD” value (plasma cyclic GMP [3]; iv infusion 0.05 μg/kg/min, 50 min) was 68 ± 33 pmol/mL. The “Mean Plasma Cyclic GMP ± SD” value (plasma cyclic GMP [3]; iv infusion 0.05 μg/kg/min, 55 min) was 87 ± 29 pmol/mL, the “Mean Plasma Cyclic GMP ± SD” value (plasma cyclic GMP [3]; iv infusion 0.05 μg/kg/min, 60 min) was 92 ± 34 pmol/mL and the “Mean Plasma Cyclic GMP ± SD” value (plasma cyclic GMP [3]; iv infusion 0.1 μg/kg/min, 110 min) was 131 ± 38 pmol/mL. For the same compound, the “Mean Plasma Cyclic GMP ± SD” value (plasma cyclic GMP [3]; iv infusion 0.1 μg/kg/min, 115 min) was 122 ± 35 pmol/mL, the “Mean Plasma Cyclic GMP ± SD” value (plasma cyclic GMP [3]; iv infusion 0.1 μg/kg/min, 120 min) was 125 ± 27 pmol/mL and the “Mean Plasma Cyclic GMP ± SD” value (plasma cyclic GMP [3]; iv infusion 0.2 μg/kg/min, 170 min) was 159 ± 37 pmol/mL. For the same compound, the “Mean Plasma Cyclic GMP ± SD” value (plasma cyclic GMP [3]; iv infusion 0.2 μg/kg/min, 175 min) was 170 ± 43 pmol/mL, the “Mean Plasma Cyclic GMP ± SD” value (plasma cyclic GMP [3]; iv infusion 0.2 μg/kg/min, 180 min) was 145 ± 31 pmol/mL and the “Plasma Cyclic GMP” value (plasma cyclic GMP [4]; 0 min (before dosing)) was 47 pmol/mL. The “Plasma Cyclic GMP” value (plasma cyclic GMP [4]; 5 min) was 201* pmol/mL, the “Plasma Cyclic GMP” value (plasma cyclic GMP [4]; 10 min) was 214* pmol/mL and the “Plasma Cyclic GMP” value (plasma cyclic GMP [4]; 15 min) was 189* pmol/mL. For the same compound, the “Plasma Cyclic GMP” value (plasma cyclic GMP [4]; 30 min) was 146 pmol/mL, the “Plasma Cyclic GMP” value (plasma cyclic GMP [4]; 60 min) was 65 pmol/mL and the “Plasma Cyclic GMP” value (plasma cyclic GMP [4]; 90 min) was 40 pmol/mL. For the same compound, the “Plasma Cyclic GMP” value (plasma cyclic GMP [4]; −20 min (before dosing)) was 46 pmol/mL.

Reference: patent US20080227713A1, “Oxidized Human Bnp” (priority 2005, published 2008)
